# Laboratory results from article PMC4102788, “Linking off-target kinase pharmacology to the differential cellular effects observed among PARP inhibitors” (Oncotarget, 2014).
# “Also recorded” adds a separate entry of the source.
# Columns and labels:
# PARP-1 = biological target: PARP-1; parameters: method as in PMID 21948594, PMID 21336281; details: ChEMBL; cited from earlier work
# human PIM1 kinase = biological target: T1, human PIM1 kinase (Homo sapiens, UniProt P11309); test: Human Pim1 kinase in vitro inhibition assay (Cerep, LANCE/FRET); type: biochemical; details: human recombinant enzyme, 30 µM ATP
# T1 construct: purchased Cerep (CRO that ran the assay) 2919 (745-P1); host or cells: insect cells
# T1 sequence (P11309 whole entry): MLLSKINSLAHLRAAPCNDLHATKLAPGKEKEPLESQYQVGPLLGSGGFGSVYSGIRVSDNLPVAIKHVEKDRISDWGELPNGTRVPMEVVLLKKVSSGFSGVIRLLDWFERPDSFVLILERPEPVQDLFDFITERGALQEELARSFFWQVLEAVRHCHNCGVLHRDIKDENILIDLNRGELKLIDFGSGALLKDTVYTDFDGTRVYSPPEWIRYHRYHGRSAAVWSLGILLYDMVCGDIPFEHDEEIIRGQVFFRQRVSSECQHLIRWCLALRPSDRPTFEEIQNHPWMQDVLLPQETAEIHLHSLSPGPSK
# Protocol: Human Pim1 and Pim2 kinase in vitro inhibition assays
# Evaluation of the effects of compounds on the activity of the human Pim1 and Pim2 kinases were quantified by measuring the phosphorylation of the substrate Ulight-
# CREBtide ([sequence]) using either Pim1 or Pim2 human recombinant enzymes expressed in insect cells and the LANCE® detection method 18,19.
# The test compound, reference compound or water (control) are mixed with either Pim1 (4.08 ng) or Pim2 (6.36 ng) enzymes in a buffer containing 40 mM Hepes/Tris (pH 7.4), 0.8 mM EGTA/Tris, 8 mM MgCl2, 1.6 mM DTT and 0.008% Tween 20.
# Thereafter, the reaction is initiated by adding 25 nM of the substrate Ulight-CREBtide
# ([sequence]) and ATP (30 µM for Pim1 and 3 µM for Pim2), and the mixture is incubated for 60 min at room temperature. […] After 60 more min, the fluorescence transfer is measured at λex=337 nm, λem=620 nm and λem=665 nm using a microplate reader (Envision, Perkin Elmer).
# STAT3 phosphorilation = system: STAT3 phosphorilation; parameters: method as in PMID 22678161; details: at 5 µM; cited from earlier work
# human CDK9 kinase = biological target: T2, human CDK9 kinase (Homo sapiens, UniProt P50750); test: Human CDK9 kinase in vitro inhibition assay (Cerep, LANCE); type: biochemical; details: human recombinant enzyme, 10 µM ATP
# T2 construct: purchased Cerep (CRO that ran the assay) 2912 (781-cdk9); host or cells: Sf9 cells
# T2 sequence (P50750 whole entry): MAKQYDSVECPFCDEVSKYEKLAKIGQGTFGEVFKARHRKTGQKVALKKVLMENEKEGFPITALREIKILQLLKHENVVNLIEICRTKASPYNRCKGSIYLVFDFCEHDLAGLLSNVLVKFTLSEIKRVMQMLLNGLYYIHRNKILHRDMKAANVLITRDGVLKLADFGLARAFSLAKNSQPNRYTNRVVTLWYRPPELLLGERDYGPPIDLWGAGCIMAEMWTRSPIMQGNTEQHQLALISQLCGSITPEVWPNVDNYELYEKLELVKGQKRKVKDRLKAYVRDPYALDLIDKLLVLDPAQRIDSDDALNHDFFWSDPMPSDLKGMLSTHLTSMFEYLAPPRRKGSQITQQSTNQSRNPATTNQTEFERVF
# T2 sequence (O60563 whole entry partner): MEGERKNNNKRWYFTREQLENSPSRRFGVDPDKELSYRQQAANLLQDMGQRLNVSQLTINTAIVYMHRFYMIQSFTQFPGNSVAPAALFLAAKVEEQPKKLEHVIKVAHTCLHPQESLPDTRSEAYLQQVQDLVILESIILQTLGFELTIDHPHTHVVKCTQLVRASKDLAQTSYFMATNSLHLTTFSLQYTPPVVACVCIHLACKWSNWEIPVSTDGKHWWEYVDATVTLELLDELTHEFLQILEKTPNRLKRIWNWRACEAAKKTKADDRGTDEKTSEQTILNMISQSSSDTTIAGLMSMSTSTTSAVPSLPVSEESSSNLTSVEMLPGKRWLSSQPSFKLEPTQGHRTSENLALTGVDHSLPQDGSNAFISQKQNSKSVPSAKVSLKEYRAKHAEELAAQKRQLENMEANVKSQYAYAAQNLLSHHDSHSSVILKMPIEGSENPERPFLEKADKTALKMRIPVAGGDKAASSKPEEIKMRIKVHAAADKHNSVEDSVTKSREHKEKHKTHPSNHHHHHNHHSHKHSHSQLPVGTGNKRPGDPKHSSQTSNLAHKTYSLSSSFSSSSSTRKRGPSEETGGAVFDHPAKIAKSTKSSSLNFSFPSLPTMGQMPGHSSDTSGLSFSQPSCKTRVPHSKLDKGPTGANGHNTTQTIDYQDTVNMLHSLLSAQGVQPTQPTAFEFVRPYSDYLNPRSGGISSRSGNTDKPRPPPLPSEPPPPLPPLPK
# From the text: (§1) Rucaparib, veliparib and olaparib were purchased from Selleckchem. Kinase in vitro assays were perfomed at Cerep (www.cerep.fr) by measuring the phosphorylation of appropriate peptide substrates by human recombinant enzymes and using FRET as a detection method (a detailed description of each kinase assay is available in online supplementary data).
# Human CDK9 kinase in vitro inhibition assay
# All details for the CDK9 in vitro assay can be consulted in the Cerep Catalogue available online under references 2912 (781-cdk9): http://www.cerep.fr/cerep/users/pages/catalog/Affiche_CondExp_Test.asp?test=2912 Evaluation of the effects of compounds on the activity of the human CDK9 quantified by measuring the phosphorylation of the substrate Ulight- […]
# mixture is incubated for 90 min at room temperature. […] After 60 more min, the fluorescence transfer is measured at λex=337 nm, λem=620 nm and λem=665 nm using a microplate reader (Envision, Perkin Elmer). The enzyme activity is determined by dividing the signal measured at λem=665 nm by that measured at λem=620 nm (ratio). The results are expressed as a percent inhibition of the control enzyme activity. The standard inhibitory reference compound is staurosporine, which is tested in each experiment at several concentrations to obtain an inhibition curve from which its IC50 value is calculated. […]
# human CDC2/CDK1 = biological target: T3, human CDC2/CDK1 (Homo sapiens, UniProt P06493); test: Human CDK1 kinase in vitro inhibition assay (Cerep, LANCE); type: biochemical
# T3 construct: purchased Cerep (CRO that ran the assay) 2875 (781-cdc2); host or cells: insect cells
# T3 sequence (P06493 whole entry): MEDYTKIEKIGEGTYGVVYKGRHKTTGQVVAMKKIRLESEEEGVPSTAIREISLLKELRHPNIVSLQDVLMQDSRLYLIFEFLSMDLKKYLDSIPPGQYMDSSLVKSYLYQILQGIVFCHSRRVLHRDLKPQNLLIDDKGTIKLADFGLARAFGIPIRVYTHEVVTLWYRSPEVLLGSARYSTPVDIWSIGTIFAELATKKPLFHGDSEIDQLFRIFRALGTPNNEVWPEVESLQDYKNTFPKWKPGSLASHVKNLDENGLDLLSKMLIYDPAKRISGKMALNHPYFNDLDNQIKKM
# T3 sequence (P14635 whole entry partner): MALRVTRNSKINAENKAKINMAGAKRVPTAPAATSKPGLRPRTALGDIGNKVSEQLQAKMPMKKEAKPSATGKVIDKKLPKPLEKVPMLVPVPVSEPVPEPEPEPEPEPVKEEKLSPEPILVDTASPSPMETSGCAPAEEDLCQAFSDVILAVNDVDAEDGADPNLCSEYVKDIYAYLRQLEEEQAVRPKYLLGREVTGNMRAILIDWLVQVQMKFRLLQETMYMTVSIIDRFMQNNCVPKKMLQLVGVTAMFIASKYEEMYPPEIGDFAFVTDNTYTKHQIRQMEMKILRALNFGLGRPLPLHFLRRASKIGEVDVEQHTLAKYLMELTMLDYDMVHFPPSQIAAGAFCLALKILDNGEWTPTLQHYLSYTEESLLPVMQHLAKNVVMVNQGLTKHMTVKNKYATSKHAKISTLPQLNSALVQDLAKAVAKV
# From the text: All details for the CDC2/CDK1 in vitro assay can be consulted in the Cerep
# Catalogue available online under references 2875 (781-cdc2):
# http://www.cerep.fr/cerep/users/pages/catalog/Affiche_CondExp_Test.asp?test=2875
# CDC2/CDK1 quantified by measuring the phosphorylation of
# the substrate Ulight-[sequence]-amide (MBP) using a human
# recombinant enzyme expressed in insect cells and the LANCE® detection method.
# The test compound, reference compound or water (control) are mixed with the enzyme (2.28 ng) in a buffer containing 40 mM Hepes/Tris(pH 7.4), 0.8 mM EGTA/Tris, 8 mM MgCl2, 1.6 mM DTT and 0.008% Tween 20. Thereafter, the reaction is initiated by adding 100 nM of the
# substrate Ulight-[sequence]-amide (MBP) and 10 µM ATP, and the
# mixture is incubated for 15 min at room temperature. […] After 60 more min, the fluorescence transfer is
# The IC50 values (concentration causing a half-maximal inhibition of control specific activity) and Hill coefficients (nH) were determined by non-linear regression analysis of the inhibition curves generated with mean replicate values using Hill equation curve fitting (Y = D + [(A – D)/(1 + (C/C50)nH)], where Y = specific activity, D = minimum specific activity, A = maximum specific activity, C = compound concentration, C50 = IC50, and nH = slope factor).
# human DYRK1A kinase = biological target: T4, human DYRK1A kinase (Homo sapiens, UniProt Q13627); test: Human DYRK1A kinase in vitro inhibition assay (Cerep, LANCE); type: biochemical
# T4 construct: purchased Cerep (CRO that ran the assay) 2781 (781-dyrk1a)
# Protocol: Evaluation of the effects of compounds on the activity of the human DYRK1a
# [sequence]-amide (MBP) using a human recombinant enzyme and the
# mixture is incubated for 30 min at room temperature. For control basal measurements,
# [1] = 50 mg single daily dose; cited from earlier work
# PIM1 kinase = biological target: PIM1 kinase; parameters: method as in PMID 23025350; details: cited from earlier work
# 16 protein kinases = test: Focused in vitro kinase screening across the panel of 16 protein kinases; type: biochemical, human; details: panel of 16 kinases
# From the text: From these kinases, we selected the 11 that were available for screening at Cerep (www.cerep.fr). The selection included members of three different kinase groups distantly related by sequence (all having less than 20% sequence identity with PIM1), namely, CAMK (PIM2, STK17A), CMGC (DYRK1A, CDK9, HIPK2, CK2, and CDC7) and AGC (AKT3, PRKCG, PRKCI, and PKA). To this list, we added also two kinases belonging to the TK group that have been identified as biomarkers of PARP drug sensitivity and shared ligands with PIM1, namely, ABL and ALK. […] In the end, a total of 16 protein kinases were selected for a focused in vitro screening of PARP inhibitors.
# as §1
# S6K1 kinase = biological target: S6K1 kinase; parameters: method as in PMID 24072592; details: cited from earlier work
smiles,measurement,setting,value
O=C1CCCN1Cc1ccc2c(c1)[nH]c(=O)c1cccn12 [CHEMBL539474],Ki,PARP-1,0.698 µM
C[C@]1(c2nc3c(C(N)=O)cccc3[nH]2)CCCN1 [veliparib],IC50,human PIM1 kinase,17 µM
same,effect on STAT3 phosphorilation,STAT3 phosphorilation,do not affect the phosphorilation state of STAT3
same,IC50,human CDK9 kinase,8.2 µM
same,inhibition of CDK1 (in words),human CDC2/CDK1,not inhibited
same,inhibition of DYRK1A (in words),human DYRK1A kinase,not inhibited
same,highest peak plasma concentration,[1],around 1 µM
CN(C)CC(=O)Nc1ccc2[nH]c(=O)c3ccccc3c2c1 [PJ34],IC50,PIM1 kinase,3.7 µM
O=C(c1cc(Cc2n[nH]c(=O)c3ccccc23)ccc1F)N1CCN(C(=O)C2CC2)CC1 [olaparib],affinity for the 16 protein kinases tested,16 protein kinases,does not inhibit any; also recorded: no relevant affinities
same,effect on STAT3 phosphorilation,STAT3 phosphorilation,do not affect the phosphorilation state of STAT3
same,inhibition of CDK1 (in words),human CDC2/CDK1,not inhibited
same,inhibition of DYRK1A (in words),human DYRK1A kinase,not inhibited
NC(=O)c1cccc2[nH]c(-c3ccc(O)cc3)nc12 [Nu1085],IC50,S6K1 kinase,0.56 µM
